Measured values as given in ChEMBL document CHEMBL1201862, “PubChem BioAssay data set” (2004).
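Exposure lasted 48 hours, with cells grown in 96-well plates and compounds tested at five concentrations. GI50: concentration for 50% inhibition of growth.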 The source made the active and inactive calls. Cut-off read from the data, not from the text of the source: active = GI50 up to about 1.1 µM and inactive = higher.

Tests used:
Experiment in all cases: NCI-60 cell line screen, 48 h
786-0 = system: 786-0
A549 = system: A549
DU-145 = system: DU-145
HCT-15 = system: HCT-15
HL-60 = system: HL-60
HT-29 = system: HT-29
KM12 = system: KM12
M14 = system: M14
MCF7 = system: MCF7
MDA-MB-435 = system: MDA-MB-435
MDA-N = system: MDA-N
Malme-3M = system: Malme-3M
NCI-H522 = system: NCI-H522
SF-295 = system: SF-295
SK-MEL-2 = system: SK-MEL-2
SNB-75 = system: SNB-75
SR = system: SR
U-251 = system: U-251
UACC-257 = system: UACC-257
HCC 2998 = system: HCC 2998

Row | SMILES | GI50 (786-0) | GI50 (A549) | GI50 (DU-145) | GI50 (HCT-15) [µM] | GI50 (HL-60) | GI50 (HT-29) | GI50 (KM12) | GI50 (M14) | GI50 (MCF7) | GI50 (MDA-MB-435) | GI50 (MDA-N) | GI50 (Malme-3M) | GI50 (NCI-H522) | GI50 (SF-295) | GI50 (SK-MEL-2) | GI50 (SNB-75) | GI50 (SR) | GI50 (U-251) | GI50 (UACC-257) | GI50 (HCC 2998)
1 | NC(Cc1c[nH]c2ccc([N+](=O)[O-])cc12)C(=O)O (centres undefined) | > 100 µM (inactive) | > 100 µM (inactive) | > 100 µM (inactive) | > 100 | > 100 µM (inactive) | > 100 µM (inactive) | > 100 µM (inactive) | > 100 µM (inactive) | > 100 µM (inactive) | > 100 µM (inactive) | > 100 µM (inactive) | > 100 µM (inactive) | > 100 µM (inactive) | > 100 µM (inactive) | > 100 µM (inactive) | > 100 µM (inactive) | > 100 µM (inactive) | > 100 µM (inactive) | > 100 µM (inactive) | –
2 | CC(C)c1cc(CN(C)C)c(O)c(C(C)(C)C)c1 | 18.5 µM (inactive) | 23.2 µM (inactive) | 36.4 µM (inactive) | 23.7 | 6.04 µM (inactive) | 36.2 µM (inactive) | 21.4 µM (inactive) | 28.4 µM (inactive) | 16.5 µM (inactive) | 36.3 µM (inactive) | 26.6 µM (inactive) | 22.2 µM (inactive) | 15.9 µM (inactive) | 19 µM (inactive) | 18.1 µM (inactive) | – | – | 16.4 µM (inactive) | 15.3 µM (inactive) | 16.1 µM (inactive)
3 | C=C1C2CC3CCC2C(OC(=O)c2ccccc2C(=O)O)C13 (centres undefined) | > 100 µM (inactive) | > 100 µM (inactive) | > 100 µM (inactive) | > 100 | > 100 µM (inactive) | > 100 µM (inactive) | > 100 µM (inactive) | > 100 µM (inactive) | – | > 100 µM (inactive) | > 100 µM (inactive) | > 100 µM (inactive) | > 100 µM (inactive) | > 100 µM (inactive) | > 100 µM (inactive) | 3.1 µM (inactive) | > 100 µM (inactive) | > 100 µM (inactive) | > 100 µM (inactive) | > 100 µM (inactive)
4 | O=C(Nc1ccccc1)OCCN=c1c2ccccc2ccc2ccccc12 | 32.7 µM (inactive) | 19.9 µM (inactive) | 28.8 µM (inactive) | 26.1 | 17 µM (inactive) | 17.2 µM (inactive) | 19.1 µM (inactive) | 19.1 µM (inactive) | > 10 µM (inactive) | 27.6 µM (inactive) | 18.5 µM (inactive) | 18.7 µM (inactive) | – | 14 µM (inactive) | 11.3 µM (inactive) | 26 µM (inactive) | 18.2 µM (inactive) | 25.9 µM (inactive) | 15.8 µM (inactive) | 11.2 µM (inactive)
5 | C[C@@H](NC(=O)[C@@H]1C[C@]1(C)COC(=O)c1cc([N+](=O)[O-])cc([N+](=O)[O-])c1)c1cccc2ccccc12 | > 100 µM (inactive) | > 100 µM (inactive) | > 100 µM (inactive) | > 100 | – | 52.2 µM (inactive) | > 100 µM (inactive) | > 100 µM (inactive) | > 100 µM (inactive) | > 100 µM (inactive) | > 100 µM (inactive) | 6.87 µM (inactive) | – | 93.5 µM (inactive) | > 100 µM (inactive) | 37.1 µM (inactive) | > 100 µM (inactive) | 99.3 µM (inactive) | > 100 µM (inactive) | > 100 µM (inactive)
6 | Cc1[nH]c(-c2ccccc2)c(O)c1C(=O)OC1CC(C)CCC1C(C)C (centres undefined) | 15.3 µM (inactive) | 13.4 µM (inactive) | 15.8 µM (inactive) | 17.8 | 16.4 µM (inactive) | 14.4 µM (inactive) | 13.4 µM (inactive) | 15.6 µM (inactive) | 3.91 µM (inactive) | 14.8 µM (inactive) | 16.3 µM (inactive) | 18.7 µM (inactive) | 13.3 µM (inactive) | 12.4 µM (inactive) | 14.3 µM (inactive) | 17.9 µM (inactive) | 8.51 µM (inactive) | 15.5 µM (inactive) | 15.7 µM (inactive) | –
7 | O=CN1CCN(C(=O)c2cc(Cl)cc(Cl)c2)C1=S | 4.71 µM (inactive) | 20.8 µM (inactive) | 16.8 µM (inactive) | 17 | 10.3 µM (inactive) | 24.3 µM (inactive) | 14.4 µM (inactive) | 15.6 µM (inactive) | 3.47 µM (inactive) | 14.2 µM (inactive) | 18.8 µM (inactive) | 3.12 µM (inactive) | 3.5 µM (inactive) | 17.7 µM (inactive) | 16.9 µM (inactive) | 13.3 µM (inactive) | – | 17 µM (inactive) | 17.4 µM (inactive) | 17.6 µM (inactive)
8 | Cc1cn(CCCCOC(=O)NC(CCCNC(=N)N)C(=O)O)c(=O)[nH]c1=O (centres undefined) | > 100 µM (inactive) | > 100 µM (inactive) | > 100 µM (inactive) | > 100 | > 100 µM (inactive) | > 100 µM (inactive) | > 100 µM (inactive) | > 100 µM (inactive) | > 100 µM (inactive) | > 100 µM (inactive) | > 100 µM (inactive) | – | – | > 100 µM (inactive) | > 100 µM (inactive) | > 100 µM (inactive) | > 100 µM (inactive) | > 100 µM (inactive) | > 100 µM (inactive) | > 100 µM (inactive)
9 | CC(=O)OC1CCC2(C)C(CCC3C4CC=C(C5(C)OCCO5)C4(C)CCC32)C1 (centres undefined) | 30.4 µM (inactive) | 26.7 µM (inactive) | 41.3 µM (inactive) | 27.2 | 19.9 µM (inactive) | 19.5 µM (inactive) | 23.6 µM (inactive) | 23 µM (inactive) | 22.6 µM (inactive) | 20.3 µM (inactive) | 20.3 µM (inactive) | 22.1 µM (inactive) | – | 26.1 µM (inactive) | 18.5 µM (inactive) | 28.8 µM (inactive) | 17.1 µM (inactive) | 18 µM (inactive) | 18.7 µM (inactive) | –
10 | CS(=O)(=O)OCCCSCCSCCCOS(C)(=O)=O | > 100 µM (inactive) | > 100 µM (inactive) | > 100 µM (inactive) | > 100 | > 100 µM (inactive) | > 100 µM (inactive) | > 100 µM (inactive) | > 100 µM (inactive) | > 100 µM (inactive) | > 100 µM (inactive) | > 100 µM (inactive) | – | > 100 µM (inactive) | > 100 µM (inactive) | – | > 100 µM (inactive) | > 100 µM (inactive) | > 100 µM (inactive) | > 100 µM (inactive) | > 100 µM (inactive)
11 | CC(=O)/C=c1\[nH]/c(=C\C=C\c2ccccc2)c(=O)n1/C=C1\C(=O)Oc2ccccc2C1=O | > 100 µM (inactive) | > 100 µM (inactive) | > 100 µM (inactive) | > 100 | > 100 µM (inactive) | > 100 µM (inactive) | > 100 µM (inactive) | > 100 µM (inactive) | > 100 µM (inactive) | > 100 µM (inactive) | > 100 µM (inactive) | > 100 µM (inactive) | > 100 µM (inactive) | – | > 100 µM (inactive) | 59.4 µM (inactive) | > 100 µM (inactive) | > 100 µM (inactive) | > 100 µM (inactive) | –
12 | O=C1Nc2ccc(Br)cc2/C1=N/c1ccc(Cl)cc1 | 26.3 µM (inactive) | 25.4 µM (inactive) | 47.2 µM (inactive) | 11.1 | 5.48 µM (inactive) | 12.1 µM (inactive) | 4.55 µM (inactive) | 20.7 µM (inactive) | 10.2 µM (inactive) | 2.87 µM (inactive) | 6.98 µM (inactive) | 24.8 µM (inactive) | 7.66 µM (inactive) | 3.63 µM (inactive) | – | – | 6.21 µM (inactive) | 23.8 µM (inactive) | 18.1 µM (inactive) | 19.1 µM (inactive)
13 | Cn1/c(=N\N=C(\CNCCO)[C@@H](O)[C@@H]2OC(c3ccccc3)OC[C@H]2O)sc2ccccc21 (some centres undefined) | 18 µM (inactive) | 15.8 µM (inactive) | 18.5 µM (inactive) | 25.5 | – | 18.6 µM (inactive) | 17.1 µM (inactive) | 13.2 µM (inactive) | 16.7 µM (inactive) | 17.9 µM (inactive) | 17.6 µM (inactive) | 17.7 µM (inactive) | 17.6 µM (inactive) | 18.7 µM (inactive) | 17.7 µM (inactive) | 16 µM (inactive) | 19 µM (inactive) | 17.3 µM (inactive) | 19.6 µM (inactive) | 11.3 µM (inactive)
14 | Cc1cn(C(=O)NC23CC4CC(CC(C4)C2)C3)c(=O)[nH]c1=O | 37.2 µM (inactive) | 35.9 µM (inactive) | > 100 µM (inactive) | 25.3 | 26.4 µM (inactive) | 33.8 µM (inactive) | 64.4 µM (inactive) | 36.1 µM (inactive) | 31.6 µM (inactive) | 61.4 µM (inactive) | 13.2 µM (inactive) | 44.7 µM (inactive) | – | 36.5 µM (inactive) | 19.9 µM (inactive) | 31.7 µM (inactive) | – | 43.5 µM (inactive) | 45.1 µM (inactive) | 50.4 µM (inactive)
15 | C[C@H]1[C@H](C)CC[C@]2(C)CC[C@]3(C)C(=C[C@@H](O)[C@@H]4[C@@]5(C)[C@H](O)[C@@H](O)[C@H](O)C(C)(C)[C@@H]5CC[C@]43C)[C@H]12 | > 100 µM (inactive) | > 100 µM (inactive) | > 100 µM (inactive) | > 100 | > 100 µM (inactive) | > 100 µM (inactive) | 96.2 µM (inactive) | > 100 µM (inactive) | > 100 µM (inactive) | > 100 µM (inactive) | > 100 µM (inactive) | – | – | > 100 µM (inactive) | > 100 µM (inactive) | – | > 100 µM (inactive) | > 100 µM (inactive) | > 100 µM (inactive) | –
